Assay results taken from patent US10723716B2, “Alpha-helix mimetics as modulators of Abeta self-assembly” (New York University, priority 2016, dated 2020).
Entries after “also recorded” stand apart in the source; their conditions may differ.

What was measured:
Aβ42 [1] = target: T1, Aβ42 (Homo sapiens, UniProt P05067); assay: ThT-based kinetic assay of Aβ42 aggregation; assay type: biochemical; conditions: for effect on Aβ42 oligomerization/fibrillation (ThT): equimolar ratio; for factor by which Aβ42 aggregation is delayed (rel. t50): 20 μM Aβ42, equimolar ratio
T1 construct: Cleavage of APP results in several Aβ isoforms; The predominant species are Aβ42 and Aβ40; purchased Anaspec (Fremont, Calif., USA)
T1 sequence (P05067 672-713 limits assumed): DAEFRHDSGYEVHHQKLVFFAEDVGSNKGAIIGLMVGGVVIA
From the text: The aggregation of Aβ42 was monitored using an established exogenous dye, Thioflavin T (ThT) that intercalates between the amyloid fibers along the perpendicular axis without affecting the kinetics of amyloid formation. (see Wolfe, L. S.; Calabrese, M. F.; Nath, A.; Blaho, D. V.; Miranker, A. D.; Xiong, Y. Proc. Natl. Acad. Sci. U.S.A. 2010, 107, 16863-16868; Levine, H. Protein Sci. 1993, 2, 404-410). A representative ThT-based kinetic assay results are depicted in FIG. 2. The oligomerization reaction of Aβ42 was initiated by diluting a 1 mM stock solution of Aβ42 (in DMSO) to a concentration of 20 μM in phosphate buffer (150 mM KCl, 50 mM NaPi, pH 7.4). Aβ42 fibrillation is a nucleation-dependent polymerization process and is characterized by a sigmoidal curve consisting of a lag phase, an elongation phase, and a plateau phase (FIG. 2a). The kinetic reaction was quantified by extracting t50, which is the time required to reach 50% of the maximum fluorescence that results from fibrillation. Under standard conditions the tso for Aβ42 fibrillation was 2.1±0.2 h (FIG. 2a and FIG. 8).
(§1) Kinetic assays were conducted on a FlexStation 3 Multi-Mode Microplate reader from Molecular Devices (Sunnyvale, Calif., USA). Experiments were conducted in triplicate in a 96-well plate with a final volume of 200 μL per well. Every measurement was an average of 50 readings. The aggregation of an amyloidogenic peptide (Aβ40, Aβ42, or IAPP) was initiated by the addition of the peptide from a stock solution (in DMSO, 0.5-1 mM) to phosphate buffer. The final concentration of each peptide was different based on their aggregation. The stoichiometry of ThT dye for each peptide was 0.5:1 (ThT:peptide). Peptide aggregation was monitored by ThT fluorescence (λex=445 nm and λem=485 nm). The blank sample contained all the components of the peptide samples except the peptide. The sample data were processed by subtracting the fluorescence of the blank sample. The fluorescence intensity data was then normalized by setting the maximum value to 1.
(§2) Kinetic assays in the presence of the compounds of the invention were conducted under the same conditions. The small molecules were added from a stock solution (1 mM or 10 mM in DMSO) to keep the final concentration of DMSO less than 1.0% (v/v). Small molecules were added to the wells with ThT and buffer and mixed gently with a pipette before adding the peptide. To keep the conditions identical, an equal amount of DMSO was added to the wells with the peptide-only control reactions.
(§3) Kinetic profiles were processed using Origin (version 9.1). Kinetic curves were fit using the built-in sigmoidal fit. Each run was fit independently to extract the t50 (time required to reach 50% of the maximum fluorescence intensity). Error bars represent standard deviations from the mean of at least three independent experiments.
In the delayed addition experiments, where the oligopyridylamides were added at various time points during Aβ amyloid reaction, the conditions were same (as used for the assays where Aβ was preincubated with the oligopyridylamides). The Aβ oligomerization process was initiated by dissolving Aβ into buffer solution and then oligopyridylamides were added to this solution at indicated time points (depend on the assay) at an equimolar ratio.

IAPP = target: T2, IAPP (Homo sapiens, UniProt P10997); assay: ThT-based kinetic assay of IAPP aggregation; assay type: biochemical; conditions: equimolar ratio (IAPP 10 μM, FIG. 25c, 26c, 27m)
T2 construct: purchased Anaspec (Fremont, Calif., USA)
T2 sequence (P10997 34-70 limits assumed): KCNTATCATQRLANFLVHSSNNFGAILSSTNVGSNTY
Experimental: as §1, §2, §3

[2] = tested on: Aβ42 mediated toxicity in mouse neuroblastoma (N2a) cells; assay: Aβ42 mediated toxicity in Neuro-2a cells (MTS cell viability); assay type: cell-based; conditions: for effect on Aβ42 mediated cytotoxicity: equimolar ratio, Neuro-2a cells; for rank order for the antagonist activity: Aβ42 mediated cytotoxicity and aggregation, 5 μM, 1:1 (FIG. 26a)
Experimental: Cell viability was determined using a CellTiter 96® AQueous One Solution Cell Proliferation Assay (MTS) kit (Promega), which measures the reduction of the tetrazolium compound MTS (3-(4,5-dimethylthiazol-2-yl)-5-(3-carboxymethoxyphenyl)-2-(4-sulfophenyl)-2H-tetrazolium, inner salt) to soluble formazan by mitochondrial dehydrogenase enzyme in living cells. Formazan can be measured at 490 nm according to the manufacturer's instructions.
Neuro-2a cells (ATCC® […]) were maintained in serum-containing media [Dulbecco's Modified Eagle's Medium—high glucose (DMEM, Sigma) supplemented with 10% foetal bovine serum (FBS), 4 mM L-Glutamine (Sigma), and 1% penicillin/streptomycin (Sigma)] in 5% CO2 at 37° C. Once the cells reached ˜95% confluence, they were split (using 0.25% trypsin-EDTA, Sigma, St. Louis, USA), seeded at a density of 5×10^3 cells/well in 100 μL complete medium in 96-well plates and cultured for 48 h. Thereafter, the media was removed, the cells washed with phosphate buffered saline (PBS), and 90 μL of serum-free DMEM was added to the wells. A solution (A) containing 50 μM Aβ42 in NaOH (pH 10.5) was prepared and kept on ice, and a solution (B) containing 50 μM of the oligopyridylamide compound, H2O (2.33 μL/well) and 1× and 10×PBS was prepared and kept at room temperature. The solutions were combined, vortexed and 10 μL of this solution immeadiatly added to each well. The final concentrations in the wells were: 5 μM Aβ42, 5 μM oligopyridylamide, 200 μM NaOH, 0.1×PBS and 0.5% (v/v) DMSO.
(§4) To investigate the toxic effect of the peptide alone on cell viability, solution (B) without the oligopyridylamide compound was mixed with solution (A), while the effect of the oligopyridylamide compound alone was determined by adding solution (A) without peptide to solution (B). The effect of oligopyridylamides on seed-catalyzed Aβ42 aggregation was probed by preparing an additional solution (C) containing 0.5 μM seeds. The volume contributed by solution (C) was taken into account in preparing solution (B). Solution (C) was mixed with solution (B), and the resulting mixture was then added to solution (A) shortly before addition to the wells. To study the effect of oligopyridylamides on the oligomeric states of Aβ42, solution (A) was mixed with solution (B) without inhibitor and incubated at room temperature for 1, 2 or 3 h. Subsequently, 50 μM oligopyridylamides was added to the mixture, which was then immediately added to the cells. After culturing for 72 h in 5% CO2 at 37° C., 20 μL of MTS reagent was added to each well. The MTS reagent was incubated for 2.5 h at 37° C., and absorbance of the soluble formazan product (λ=490 nm) of MTS reduction was measured on a Synergy H1MF Multi-Mode microplate-reader (BioTek, Winooski, Vt., USA), with a reference wavelength of 650 nm to subtract the background. Wells treated with a solution containing serum-free DMEM, 200 μM NaOH, 0.1×PBS and 0.5% (v/v) DMSO served as control. MTS reduction was determined from the ratio of the absorbance of the treated wells to the control wells. Each data point represents an average of four independent quadruplet-well trials.

Neuro-2a cells = assay: Effect of compound alone on Neuro-2a cell viability; assay type: cell-based, mouse; conditions: matched cytotoxic experimental conditions, no Aβ42
Experimental: as §4, with “After culturing for 72 h in 5% CO2 at 37° C., 20 μL of MTS reagent was added to each well.” left out

[3] = tested on: IAPP mediated toxicity in rat INS-1 cells; assay: IAPP mediated toxicity in INS-1 cells; assay type: cell-based; conditions: equimolar ratio, rat INS-1 cells
Aβ42 [4] = target: T1, Aβ42; assay: ThT-based kinetic assay of Aβ42 aggregation; assay type: biochemical; conditions: 5 μM, 1:1 (Ligand:Aβ42); without ligand 100%

Compound	effect on Aβ42 oligomerization/fibrillation (ThT) (Aβ42 [1])	effect on Aβ42 mediated cytotoxicity [2]	toxicity of compound alone to Neuro-2a cells (Neuro-2a cells)	also measured
COC(=O)c1ccc([N+](=O)[O-])c(OCCCN)n1 [ADH-3]	No noticeable effect	–	–	–
COC(=O)c1ccc([N+](=O)[O-])c(OC2CCCCC2)n1 [ADH-5]	No noticeable effect	–	–	–
COC(=O)c1ccc(NC(=O)c2ccc(NC(=O)c3ccc([N+](=O)[O-])c(OCC(=O)O)n3)c(OCc3ccccc3)n2)c(OCC(=O)O)n1 [ADH-17]	no effect	no effect	not toxic	effect on IAPP fibrillation / amyloid formation (ThT) (IAPP): completely inhibits; effect on IAPP mediated toxicity [3]: completely inhibits
COC(=O)c1ccc(NC(=O)c2ccc(NC(=O)c3ccc([N+](=O)[O-])c(OCCCN)n3)c(OCCCN)n2)c(OCCCN)n1 [ADH-19]	effective in blocking	–	–	factor by which Aβ42 aggregation is delayed (rel. t50) (Aβ42 [1]): 3.2±0.3
COC(=O)c1ccc(NC(=O)c2ccc(NC(=O)c3ccc([N+](=O)[O-])c(OCc4ccccc4)n3)c(OCC(=O)O)n2)c(OCC(=O)O)n1 [ADH-27]	–	–	not toxic	–
COC(=O)c1ccc(NC(=O)c2ccc(NC(=O)c3ccc([N+](=O)[O-])c(OCCCN)n3)c(OCc3ccccc3)n2)c(OCCCN)n1 [ADH-37]	weak inhibitor	did not have a noticeable effect	–	ThT fluorescence intensity of the amyloid reaction (Aβ42 [4]): 74%
COC(=O)c1ccc(NC(=O)c2ccc(NC(=O)c3ccc([N+](=O)[O-])c(OC(C)C)n3)c(OCc3ccccc3)n2)c(OCCCN)n1 [ADH-39]	accelerated	effective at inhibiting cytotoxicity; also recorded: effective at rescuing cells; also recorded: equally effective	not toxic	–
CCCCOc1nc(C(=O)Nc2ccc(C(=O)Nc3ccc(C(=O)OC)nc3OCCCN)nc2OCCCN)ccc1[N+](=O)[O-] [ADH-40]	–	–	not toxic	rank order for the antagonist activity [2]: ADH41>ADH46>ADM-40≥ADM-45A
COC(=O)c1ccc(NC(=O)c2ccc([N+](=O)[O-])c(OCc3ccccc3)n2)c(OCCCN)n1 [ADH-43]	effective in blocking	–	–	factor by which Aβ42 aggregation is delayed (rel. t50) (Aβ42 [1]): 3.3±0.4
COC(=O)c1ccc(NC(=O)c2ccc([N+](=O)[O-])c(OCCCN)n2)c(OCCCN)n1 [ADH-44]	–	–	–	factor by which Aβ42 aggregation is delayed (rel. t50) (Aβ42 [1]): 2.4±0.3
CCOc1nc(C(=O)Nc2ccc(C(=O)Nc3ccc(C(=O)OC)nc3OCCCN)nc2OCCCN)ccc1[N+](=O)[O-] [ADH-45A]	–	–	not toxic	rank order for the antagonist activity [2]: ADH41>ADH46>ADM-40≥ADM-45A
COC(=O)c1ccc(NC(=O)c2ccc(NC(=O)c3ccc([N+](=O)[O-])c(OCC(C)C)n3)c(OCCCN)n2)c(OCCCN)n1 [ADH-46]	–	effective at rescuing cells	–	rank order for the antagonist activity [2]: ADH41>ADH46>ADM-40≥ADM-45A
CCCCCCOc1nc(C(=O)Nc2ccc(C(=O)Nc3ccc(C(=O)OC)nc3OCCCN)nc2OCc2ccccc2)ccc1[N+](=O)[O-] [ADH-52]	–	effective at rescuing cells	not toxic	–
